Experiments:
[1] = tested on: WHHL (Watanabe heritable hyperlipidemic) rabbits; assay: Blood lipid levels in WHHL (LDL receptor-deficient) rabbits fed the compound in feedstuff for 14 days (Test Example 2); type: in vivo, rabbit; settings: Means ± SEM (n = 6)
Description: WHHL (Watanabe heritable hyperlipidemic) rabbits (2 to 3 months-old, four male, eight female), LDL receptor-deficient animal were used. The body weight was measured. Blood was then taken from the ear central artery, and the total cholesterol (TC) and triglyceride (TG) in blood plasma were measured using Wako Pure Chemical kit (manufactured by Wako Pure Chemicals, Inc.) and an autoanalyzer (Hitachi 7070). The animals were divided into two groups, each of which consisted of six animals. The subject compound was mixed with a basic feedstuff (RC-4, Oriental Yeast, Co., Ltd) in an amount of 0.2%, and the mixed feedstuff was fed to the animals in an amount of 120 g per a day (corresponds to the amount of 100 mg/kg/day). To the control group was fed basic feedstuff in an amount of 120 g per a day. The blood lipid levels at the starting of administration and after finishing the administration for 14 days are shown in Table 2 and Table 3, respectively.

common marmosets = assay: Plasma lipid change in common marmosets after four days of oral administration (Test Example 1); type: in vivo, common marmoset; settings: male common marmosets, 100 mg/kg/day oral once a day for four days, blood plasma on fifth day, Means ± SEM (N = 5)
Description: Male common marmosets (300-500 g) were bred while feeding normal feed (CMS-1, CLEA Japan, Inc.) and water freely. The body weight was measured. Blood was taken from the femoral vein, and the total cholesterol (TC), HDL-cholesterol (HDL-C) and triglyceride (TG) in blood plasma were measured using Wako Pure Chemical kit (manufactured by Wako Pure Chemicals, Inc.) and an autoanalyzer (Hitachi 7070). The animals were devided into groups, each of which consisted of five animals. The subject compound, as a suspension in 0.5% methylcellulose, was forced oral administration to the animals once a day and for four days. On the morning of the fifth day, the body weight was measured. Blood was then taken from the femoral vein, and the total cholesterol, triglyceride and HDL-cholesterol in blood plasma were measured according to the above-mentioned method. The non-HDL-C was calculated by subtracting the HDL-cholesterol from the total cholesterol.

[2] = 0.2% in feed (corresponds to 100 mg/kg/day), after 14 days relative to initial
[3] = 0.2% in feed (corresponds to 100 mg/kg/day), after administration for 14 days
[4] = blood plasma at the starting of administration (baseline) of the 0.2% in feed group

For `COc1cccc([C@H]2O[C@H](CC(=O)N3CCC(CC(=O)O)CC3)C(=O)N(CC(C)(C)COC(C)=O)c3ccc(Cl)cc32)c1OC` [subject compound, N-[[(3R,5S)-1-(3-acetoxy-2,2-dimethylpropyl)-7-chloro-5-(2,3-dimethoxyphenyl)-2-oxo-1,2,3,5-tetrahydro-4,1-benzoxazepin-3-yl]acetyl]piperidine-4-acetic acid], the “TC % of initial” value [1, 2] was 85 ± 2 %, the “TG % of initial” value [1, 2] was 40 ± 3 % and the “TC (mg/dL) end” value [1, 3] was 715 ± 36 mg/dL. For the same compound, the “TG (mg/dL) end” value [1, 3] was 107 ± 10 mg/dL, the “TC (mg/dL) initial” value [1, 4] was 838 ± 45 mg/dL and the “TG (mg/dL) initial” value [1, 4] was 272 ± 24 mg/dL. For the same compound, the “HDL-C (%-change)” value (common marmosets) was 16.2 ± 10%, the “TG (%-change)” value (common marmosets) was −37.6 ± 17% and the “Non-HDL-C (%-change)” value (common marmosets; non-HDL-C = total cholesterol minus HDL-cholesterol) was −40.4 ± 4 %.

From US20080058310A1, “High-density lipoprotein-cholesterol level elevating agent” (Takeda Pharmaceutical Company Limited, priority 2000, published 2008)
